What was measured:
Integrin alpha-1 = target: T1, Integrin alpha-1 (Homo sapiens, UniProt P56199); experiment: Inhibition of human alpha1 integrin expressed in CHO cells binding to collagen I after 2 hrs by cell-adhesion-based WST-1 assay
T1 sequence (P56199 whole entry): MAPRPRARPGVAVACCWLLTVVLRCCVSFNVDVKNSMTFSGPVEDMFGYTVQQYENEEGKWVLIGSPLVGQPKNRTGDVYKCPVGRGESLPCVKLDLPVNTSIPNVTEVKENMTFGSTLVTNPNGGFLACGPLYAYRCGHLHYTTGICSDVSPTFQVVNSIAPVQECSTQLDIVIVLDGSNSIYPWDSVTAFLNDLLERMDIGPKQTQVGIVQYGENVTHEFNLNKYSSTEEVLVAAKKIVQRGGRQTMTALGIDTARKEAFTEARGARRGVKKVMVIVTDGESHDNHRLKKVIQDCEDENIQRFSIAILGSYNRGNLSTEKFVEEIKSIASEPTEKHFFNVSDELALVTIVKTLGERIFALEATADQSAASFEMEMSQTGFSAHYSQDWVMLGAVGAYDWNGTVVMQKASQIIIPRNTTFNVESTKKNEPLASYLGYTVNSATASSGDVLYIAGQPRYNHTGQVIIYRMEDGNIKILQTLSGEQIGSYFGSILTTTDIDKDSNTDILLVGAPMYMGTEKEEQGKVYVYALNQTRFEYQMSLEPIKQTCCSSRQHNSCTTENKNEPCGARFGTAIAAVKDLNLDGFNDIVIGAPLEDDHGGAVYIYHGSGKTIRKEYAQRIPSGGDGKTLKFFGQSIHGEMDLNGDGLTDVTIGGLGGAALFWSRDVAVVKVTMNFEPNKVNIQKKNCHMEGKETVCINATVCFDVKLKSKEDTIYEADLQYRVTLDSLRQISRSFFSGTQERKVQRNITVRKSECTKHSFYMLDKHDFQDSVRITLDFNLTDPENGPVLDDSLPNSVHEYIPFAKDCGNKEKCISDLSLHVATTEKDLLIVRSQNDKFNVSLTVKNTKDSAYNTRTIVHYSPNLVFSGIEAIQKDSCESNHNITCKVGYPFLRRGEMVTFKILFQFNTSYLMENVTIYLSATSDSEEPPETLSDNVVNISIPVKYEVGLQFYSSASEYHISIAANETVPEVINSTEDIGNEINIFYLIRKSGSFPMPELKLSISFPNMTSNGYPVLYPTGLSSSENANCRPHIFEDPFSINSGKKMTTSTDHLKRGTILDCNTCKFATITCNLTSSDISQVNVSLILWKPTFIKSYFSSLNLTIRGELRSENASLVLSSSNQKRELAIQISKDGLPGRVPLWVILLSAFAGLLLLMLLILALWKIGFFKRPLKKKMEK

[1] = target: Integrin alpha-1 (Homo sapiens) (UniProt P56199); experiment: Inhibition of human alpha1 integrin expressed in CHO cells binding to collagen I at 50 uM after 2 hrs by cell-adhesion-based WST-1 assay
[2] = target: Integrin alpha-1 (Homo sapiens) (UniProt P56199); experiment: Inhibition of human alpha1 integrin expressed in CHO cells binding to collagen I at 100 uM after 2 hrs by cell-adhesion-based WST-1 assay relative to control
CHO [3] = experiment: Cytotoxicity against CHO cells assessed as release of lactate dehydrogenase by resazurin assay; format: cell-based, Cricetulus griseus; conditions: chinese hamster
CHO [4] = experiment: Selectivity ratio of EC50 for human alpha2 integrin expressed in CHO cells binding to collagen IV to EC50 for human alpha1 integrin expressed in CHO cells binding to collagen I; format: cell-based
[5] = Lipophilicity, log P of the compound; format: physicochemical; conditions: octanol/water
Integrin alpha2/beta1 = Integrin alpha2/beta1 (Homo sapiens, UniProt P05556+P17301); experiment: Binding affinity to alpha2beta1 integrin (unknown origin); format: protein-complex assay
Chain of Integrin alpha2/beta1 (P05556 whole entry): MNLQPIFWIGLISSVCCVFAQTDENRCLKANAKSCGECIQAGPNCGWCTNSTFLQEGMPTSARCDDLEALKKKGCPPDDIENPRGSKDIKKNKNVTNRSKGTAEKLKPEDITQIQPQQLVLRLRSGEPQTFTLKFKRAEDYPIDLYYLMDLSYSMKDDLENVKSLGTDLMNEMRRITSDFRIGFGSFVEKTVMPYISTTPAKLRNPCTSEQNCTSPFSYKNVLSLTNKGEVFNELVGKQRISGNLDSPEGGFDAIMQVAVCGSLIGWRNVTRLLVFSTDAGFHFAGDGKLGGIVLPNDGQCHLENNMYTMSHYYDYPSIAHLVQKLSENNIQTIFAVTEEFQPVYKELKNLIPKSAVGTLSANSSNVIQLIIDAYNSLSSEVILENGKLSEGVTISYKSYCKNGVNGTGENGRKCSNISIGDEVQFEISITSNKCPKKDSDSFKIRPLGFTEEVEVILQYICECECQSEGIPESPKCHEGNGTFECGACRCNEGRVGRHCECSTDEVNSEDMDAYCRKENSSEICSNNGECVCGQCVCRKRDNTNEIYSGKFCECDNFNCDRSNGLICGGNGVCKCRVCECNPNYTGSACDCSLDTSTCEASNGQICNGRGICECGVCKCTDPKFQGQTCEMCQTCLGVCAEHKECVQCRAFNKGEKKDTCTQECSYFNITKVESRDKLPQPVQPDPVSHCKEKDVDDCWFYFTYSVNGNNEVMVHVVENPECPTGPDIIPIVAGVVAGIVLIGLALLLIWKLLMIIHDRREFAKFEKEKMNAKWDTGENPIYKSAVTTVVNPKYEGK
Chain of Integrin alpha2/beta1 (P17301 whole entry): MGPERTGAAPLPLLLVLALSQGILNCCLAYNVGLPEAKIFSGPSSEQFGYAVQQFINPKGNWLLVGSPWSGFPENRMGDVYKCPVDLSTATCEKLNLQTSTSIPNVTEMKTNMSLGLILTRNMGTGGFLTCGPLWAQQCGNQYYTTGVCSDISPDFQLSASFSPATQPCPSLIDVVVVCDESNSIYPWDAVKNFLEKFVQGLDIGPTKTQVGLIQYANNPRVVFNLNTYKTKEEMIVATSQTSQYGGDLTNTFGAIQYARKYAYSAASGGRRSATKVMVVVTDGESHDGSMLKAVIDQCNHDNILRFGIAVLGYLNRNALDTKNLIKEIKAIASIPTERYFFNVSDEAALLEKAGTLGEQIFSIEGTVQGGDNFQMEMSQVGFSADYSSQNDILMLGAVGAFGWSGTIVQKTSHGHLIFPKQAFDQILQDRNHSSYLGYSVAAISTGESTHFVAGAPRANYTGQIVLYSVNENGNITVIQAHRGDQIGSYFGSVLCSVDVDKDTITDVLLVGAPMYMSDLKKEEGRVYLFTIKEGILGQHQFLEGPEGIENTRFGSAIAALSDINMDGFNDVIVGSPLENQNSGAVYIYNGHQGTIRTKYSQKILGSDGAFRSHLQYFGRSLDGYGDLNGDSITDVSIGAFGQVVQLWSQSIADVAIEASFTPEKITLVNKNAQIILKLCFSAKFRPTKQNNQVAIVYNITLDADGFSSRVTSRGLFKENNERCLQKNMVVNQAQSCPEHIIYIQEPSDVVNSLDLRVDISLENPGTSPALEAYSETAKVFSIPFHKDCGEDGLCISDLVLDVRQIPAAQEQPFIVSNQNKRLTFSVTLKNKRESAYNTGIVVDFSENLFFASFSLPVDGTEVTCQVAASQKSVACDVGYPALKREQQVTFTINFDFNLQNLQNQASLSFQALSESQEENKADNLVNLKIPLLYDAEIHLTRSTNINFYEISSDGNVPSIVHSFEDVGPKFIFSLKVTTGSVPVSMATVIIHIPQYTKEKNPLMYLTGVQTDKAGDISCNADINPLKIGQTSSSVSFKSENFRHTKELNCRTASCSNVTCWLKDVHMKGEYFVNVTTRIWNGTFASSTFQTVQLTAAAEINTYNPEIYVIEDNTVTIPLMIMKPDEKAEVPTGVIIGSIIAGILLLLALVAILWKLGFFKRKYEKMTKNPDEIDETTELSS

EC50 (Integrin alpha-1) | inhibition [1] | Imax [2] | logP [5] | EC50 (Integrin alpha2/beta1) | Structure (SMILES) | Activity (CHO [3]) | Ratio EC50 (CHO [4])
Not Active | 0% | – | – | – | CC(=O)c1cccc(NS(=O)(=O)c2ccc(Cl)cc2Cl)c1 | – | –
– | 93% | 93% | – | – | O=C1c2ccccc2-c2ccc(NS(=O)(=O)c3ccc(Cl)cc3Cl)cc21 | <= 200 uM | 1.2
– | 72% | 72% | – | – | O=C(c1ccccc1)c1cccc(NS(=O)(=O)c2ccc(I)cc2)c1 | <= 200 uM | –
Not Active | 34% | 34% | – | – | Cc1ccc(S(=O)(=O)Nc2cccc(C(=O)c3ccccc3)c2)cc1 | <= 200 uM | –
– | 86% | 95% | 3.1 | – | O=C(c1ccccc1)c1ccc(OS(=O)(=O)c2cc(Cl)cc(Cl)c2O)cc1 | <= 100 uM | 2.8
– | – | – | – | 2000 nM | O=C(c1ccccc1)c1ccc(NS(=O)(=O)c2cccc(-c3ccc(F)cc3)c2)cc1 | – | –
Not Active | 0% | – | – | – | O=C(c1ccccc1)c1ccc(NS(=O)(=O)c2ccccc2)cc1 | <= 200 uM | –
Not Active | 0% | – | – | – | CN(c1ccc2c(c1)C(=O)c1ccccc1-2)S(=O)(=O)c1ccc(Cl)cc1Cl | – | –
– | 92% | 96% | – | – | O=C(c1ccccc1)c1cccc(NS(=O)(=O)c2ccc(Br)cc2)c1 | <= 200 uM | 2.2
Not Active | 0% | – | – | – | CN(c1ccc(C(=O)c2ccccc2)cc1)S(=O)(=O)c1ccc(Cl)cc1Cl | – | –
Not Active | 34% | 34% | – | – | O=C(c1ccccc1)c1ccc(NS(=O)(=O)c2ccc(Br)cc2)cc1 | <= 200 uM | –
– | 82% | 82% | 3.5 | – | O=C(c1ccccc1)c1ccc(NS(=O)(=O)c2ccc(Cl)cc2Cl)cc1 | <= 20 uM | 1.5
Not Active | 0% | – | – | – | O=C(c1ccccc1)c1ccc(OS(=O)(=O)c2ccc(Cl)cc2Cl)cc1 | – | –
– | 85% | 85% | – | – | O=C(c1ccccc1)c1ccc(NS(=O)(=O)c2ccc(I)cc2)cc1 | <= 200 uM | 1.3
– | 70% | 87% | 4.1 | – | O=S(=O)(Nc1ccc2c(c1)Cc1ccccc1-2)c1ccc(Cl)cc1Cl | <= 200 uM | 0.8
Not Active | 35% | 35% | – | – | Cc1ccc(S(=O)(=O)Nc2ccc(C(=O)c3ccccc3)cc2)cc1 | <= 200 uM | –
Not Active | 8% | – | – | – | CN(c1cccc(C(=O)c2ccccc2)c1)S(=O)(=O)c1ccc(Cl)cc1Cl | – | –
Not Active | 4% | – | – | – | O=C(c1ccccc1)c1cccc(NS(=O)(=O)c2ccccc2)c1 | <= 200 uM | –
– | 69% | 69% | – | – | O=C(c1ccccc1)c1cccc(NS(=O)(=O)c2ccc(Cl)cc2Cl)c1 | <= 200 uM | 3

— ChEMBL document CHEMBL3217419, “Blockage of collagen binding to integrin 21: structureactivity relationship of proteinprotein interaction inhibitors” (Medchemcomm, 2011)
